Laboratory results: US20080269152A1, “Nucleic acid binding oligonucleotides” (President and Fellows of Harvard College Harvard Medical …, priority 2003, published 2008)

system: internal ribosome entry site of the Hepatitis C virus, nucleotides 1-372 (HCV-IRES) RNA; experiment: Hybridization of Cy3-labeled HCV-IRES RNA to DNA 5mer array; type: binding; details: address among the 40 most fluorescent in 3 out of 5 arrays; HCV-IRES RNA 92.7 nM, 4° C. overnight, scanned at 532 nm
Method: A short DNA 5mer array was made to order by Combimatrix® Mukilteo, Wash. The array contained 1,000 of the […] possible DNA 5mer oligomers, and provided a separate address for each oligomer.
The target nucleic acid sequence used was the RNA transcript of the internal ribosome entry site of the Hepatitis C virus, nucleotides 1-372 (HCV-IRES). The RNA was prepared using a Megascrip™ T7 kit, nuclease free water and 5-(3aminoallyl)-UTP, which were all provided by Ambion Inc. A DNA template encoding the HCV-IRES was constructed according to standard techniques and linearized. RNA synthesis reaction mixture contained the following:
The reaction mixture was incubated at 30° C. overnight and purified using Rneasy® kit from QIAGEN, Inc. Target Sequence was then labeled using a Cy3 monoreactive dye pack from Amersham Biosciences, Inc. Dried HCV-IRES RNA was added to 20 μL of sodium carbonate (0.1 M pH 8.5) followed by 20 μL Cy3 dye solution. The reaction mixture was mixed and incubated at room temperature for 1 hour in the dark and purified using RNeasy® mini-kit.
The array was incubated with RNase free water for 30 minutes at 37° C. then washed three times with wash buffer (300 mM NaCl, 100 mM MgCl2). Hybridization was effected by adding a solution of HCV-IRES RNA (92.7 nM in 300 mM NaCl, 100 mM MgCl2 and 100 mM Tris pH 7.4) into the hybridization chamber. The array was incubated at 4° C. overnight in the dark and rinsed three times with wash buffer.
If an address corresponding to the same oligomer was selected in 3 out of 5 arrays analyzed, that oligomer was scored as likely binding ligand for the HCV-IRES RNA.

Which “likely binding candidates for HCV-IRES” value does the source give for GGCCC here?
The value was “likely binding candidates”.

GGGGG was tested. Which “likely binding candidates for HCV-IRES” value did it give?
Its value is “likely binding candidates”.

Which “likely binding candidates for HCV-IRES” value does the source give for GGTCC here?
Its value is “likely binding candidates”.

GTCCC was tested. Which “likely binding candidates for HCV-IRES” value did it give?
The value was “likely binding candidates”.

TTCCC was tested. Which “likely binding candidates for HCV-IRES” value did it give?
Its value is “likely binding candidates”.

How did the “likely binding candidates for HCV-IRES” value turn out when TTCTC was run?
The value was “likely binding candidates”.
